The values that follow come from paper PMC8952799, “Two Male-Specific Antimicrobial Peptides SCY2 and Scyreprocin as Crucial Molecules Participated in the Sperm Acrosome Reaction of Mud Crab Scylla paramamosain” (International Journal of Molecular Sciences, 2022).

Holding throughout (assay): modified ELISA on progesterone-coated plate, Scatchard plot
(In general: ELISA stands for enzyme-linked immunosorbent assay.)

For test [1], the target named is T1, rScyreprocin/rSCY2 mixture.
T1 construct: gene scyreprocin; complex not isolated, stoichiometry unknown
The class given is binding, Scylla paramamosain. The settings on record: protein mixture 0-24 uM on plate coated with 3 ug progesterone; antibody detection; both proteins present.

The target in a further test is T2, rScyreprocin (Scylla paramamosain, UniProt A0A7D0GB18).
T2 construct: recombinant His-tagged scyreprocin, purified
T2 sequence (A0A7D0GB18 1-84): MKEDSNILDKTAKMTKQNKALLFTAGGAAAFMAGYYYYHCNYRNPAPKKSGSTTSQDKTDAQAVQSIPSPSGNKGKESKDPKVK
The class given is binding.

The next test concerns the target T3, rSCY2 (Scylla paramamosain, UniProt A0AAW0UAN3).
T3 construct: gene SCY2; recombinant His-tagged SCY2, purified
The class given is binding. Conditions: protein 0-24 uM on plate coated with 3 ug progesterone; antibody detection; rSCY2 alone.

T3 sequence (A0AAW0UAN3 25-124 limits assumed): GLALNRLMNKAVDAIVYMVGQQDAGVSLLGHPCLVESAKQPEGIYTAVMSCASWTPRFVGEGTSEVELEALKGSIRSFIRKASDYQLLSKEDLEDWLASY

Usually Kd stands for the free concentration of one partner at which half of the binding sites on the other are occupied at equilibrium, for simple one-to-one binding. For `CC(=O)[C@H]1CC[C@H]2[C@@H]3CCC4=CC(=O)CC[C@]4(C)[C@H]3CC[C@]12C` [progesterone], the Kd in test [1] came to 72.2 nM; at rScyreprocin it was 259 nM; on rSCY2 it was 143 nM.
